{"source": "patent US11612607B2", "about": "“Fenoldopam topical formulations for treating skin disorders” (TARO PHARMACEUTICAL INDUSTRIES LTD., priority 2016, dated 2023)", "format_in_all_cases": "in vivo, BALB/c mice", "key": {"IL-23 [1]": {"test_system": "IL-23", "test": "Second animal study: IL-23 in skin homogenates (ELISA)", "excerpt": "(§1) In both studies, typical features of psoriasis, namely erythema, scaling, and skin thickness, were induced by the application of 5% w/w imiquimod (IMQ) cream on the dorsal skin of BALB/c mice over a period of 6 consecutive days. Animals that developed psoriasis-like symptoms were used for studying the efficacy of the fenoldopam topical compositions. In the fenoldopam-treated groups, the animals received imiquimod only for the first two days. From the third day of the study, the animals received imiquimod and fenoldopam for the next four days. First Animal Study: The different treatment groups of mice used in the first animal study were as following: the SHAM group in the study represents mice which were shaven on the dorsal side without any treatment; negative control group represents the typical psoriatic model induced by imiquimod 5% (IMQ); positive control group represents the mice induced with psoriasis by imiquimod and then treated with the marketed steroid betamethasone valerate (IMQ BMV); and treatment groups represent the mice induced with psoriasis by imiquimod and then treated with a topical dose of 1 mg/cm^2 fenoldopam using different compositions of fenoldopam, such as solution (IMQ FD), water-washable ointment (IMQ WB 45/55), or anhydrous gel (IMQ AG BHT) compositions.\nThe second animal study was conducted in order to test additional topical compositions of fenoldopam with different strengths (0.01%, 0.1% and 1% of fenoldopam), as well as the effect of systemic administration of fenoldopam. The different groups of mice used in the second animal study were as following: the SHAM group in the study represents mice which were shaven on the dorsal side without any treatment; negative control group represents the typical psoriatic model induced by imiquimod 5% (IMQ); positive control group represents the mice induced with psoriasis by imiquimod and then treated with the marketed steroid betamethasone valerate (IMQ BMV); and treatment groups represent the mice induced with psoriasis by imiquimod and then treated with a topical dose of various compositions of fenoldopam: water-washable base (IMQ_WB45/55-0.01%, IMQ_WB45/55-0.1%, IMQ_WB45/55-1% or IMQ_WB45/55_1% No citric acid), or oleaginous ointment composition (IMQ_OB 0.01%, IMQ_OB 0.1% or IMQ_OB […]). An additional group of mice received systemic Fenoldopam by intraperitoneal injection (IMQ_FD_IP).\n(§2) The skin homogenates obtained from mice of the different groups were analyzed using ELISA for quantification of IL-17, IL-23, TNF-α, and IL-22 levels, as the selected interleukins are the typical inflammatory markers of psoriasis."}, "IL-17 [2]": {"test_system": "IL-17", "test": "First animal study: IL-17 in skin homogenates (ELISA)", "conditions": "first animal study", "excerpt": "as §1, with “The effect of topical compositions on the treatment of psoriasis has been tested in two animal studies. In both” for “In both”\n(§3) An IMQ-induced psoriasis model reproduces biochemical and histopathological parameters characteristic of human psoriatic lesions. Topical application of the IMQ cream increased levels of cytokines such as IL-23, TNF-α, and IL-17 in the treated skin tissues. The skin homogenates obtained from mice of different groups were analyzed using ELISA for quantification of IL-17, IL-23, and TNF-α, levels as the selected interleukins are the typical inflammatory markers of psoriasis. […] The effect of fenoldopam was as effective as the reference topical treatment with the marketed steroid."}, "TNF-α [3]": {"test_system": "TNF-α", "test": "First animal study: TNF-α in skin homogenates (ELISA)", "conditions": "first animal study", "excerpt": "as §1, with “The effect of topical compositions on the treatment of psoriasis has been tested in two animal studies. In both” for “In both”\nas §3"}, "IL-22": {"test_system": "IL-22", "test": "Second animal study: IL-22 in skin homogenates (ELISA)", "excerpt": "as §1\n(§4) The second animal study was conducted in order to test additional topical compositions of fenoldopam with different strengths (0.01%, 0.1% and 1% of fenoldopam), as well as the effect of systemic administration of fenoldopam. […]\nas §2"}, "TNF-α [4]": {"test_system": "TNF-α", "test": "Second animal study: TNF-α in skin homogenates (ELISA)", "excerpt": "as §1, §4, §2"}, "IL-17 [5]": {"test_system": "IL-17", "test": "Second animal study: IL-17 in skin homogenates (ELISA)", "excerpt": "as §1, §4, §2"}, "[6]": {"test_system": "IMQ-induced psoriasis model", "test": "Second animal study: IMQ-induced psoriasis, phenotype and PASI scoring", "excerpt": "as §1, §4"}, "IL-23 [7]": {"test_system": "IL-23", "test": "First animal study: IL-23 in skin homogenates (ELISA)", "conditions": "first animal study", "excerpt": "as §1, with “The effect of topical compositions on the treatment of psoriasis has been tested in two animal studies. In both” for “In both”\nas §3"}}, "note": "Where “and” joins values, the source holds several entries; their conditions need not be identical. Equal entries are not always repeated.", "data": [{"compound": "CC(C)Cn1cnc2c(N)nc3ccccc3c21", "note": "[IMQ, imiquimod]", "values": [{"measurement": "Fold difference in IL-23 levels (↑, vs. Sham)", "setting": "IL-23 [1]", "result": "1.55 fold and 1.55 ↑ fold"}, {"measurement": "Elevation of IL-17 levels compared to the SHAM group", "setting": "IL-17 [2]", "result": 5, "unit": "fold"}, {"measurement": "Increase in the TNF-α level compared to the SHAM group", "setting": "TNF-α [3]", "result": 8.42, "unit": "fold"}, {"measurement": "Fold difference in IL-22 levels (↑, vs. Sham)", "setting": "IL-22", "result": "1.36 fold and 1.36 ↑ fold"}, {"measurement": "Fold difference in TNF-α levels (↑, vs. Sham)", "setting": "TNF-α [4]", "result": "2.08 fold and 2.08 ↑ fold"}, {"measurement": "Fold difference in IL-17 levels (↑, vs. Sham)", "setting": "IL-17 [5]", "result": "1.63 fold and 1.63 ↑ fold"}, {"measurement": "PASI score for erythema, scaling, and thickness on the 6th day", "setting": "[6]", "result": "about 3"}, {"measurement": "Increase of IL-23 levels compared to SHAM group", "setting": "IL-23 [7]", "result": 2.30, "unit": "fold"}]}]}
